Laboratory results: paper PMC6647725 (Analytical and Bioanalytical Chemistry, 2019)

Legend:
[1] = Stability in mouse plasma and its final extract (LC-MS/MS); assay type: in vitro ADME
Procedure: (§1) 50 μL of the sample (either from a preclinical study, calibration standard, or QC) was mixed with 25 μL of IS-working solution, followed by 150 μL of ACN for protein precipitation. Samples were vortex mixed and centrifuged at 23,100g for 10 min at 20 °C. An aliquot of 80 μL of supernatant was diluted with 120 μL of 10 mM ammonium bicarbonate in water:MeOH (1:1 v/v). The final extract was transferred to a glass vial with insert, and 10 μL was injected to the LC-MS/MS system for analysis.
(§2) The stability of each analyte was investigated in all the previously mentioned matrices. For plasma (both human and mouse), the stability was determined in triplicate at two concentration levels, QC L and QC H, whereas for mouse tissue homogenates only at QC M (except the brain in one stability condition). For all matrices, the following stability conditions were assessed: short term at room temperature (RT), long term at − 20 °C, and after 3 freeze-thaw (F/T) cycles at − 20 °C/RT. Furthermore, for tissue homogenates, the short-term stability in ice-water, long-term stability at − 70 °C, and F/T stability at − 70 °C/ice-water were also evaluated. Additionally, the stability in the final extract was tested. […] Lastly, the stability of the stock solutions at − 20 °C was investigated.

CDK4 = conditions: cited from earlier work
[2] = Stability in mouse liver homogenate and its final extract; assay type: in vitro ADME; conditions: nominal 50 ng/mL
Procedure: (§3) After weighing the complete organ, a volume of 3 mL of this solution was added to the liver and small intestine, 2 mL to the kidneys, and 1 mL to the brain and spleen. The tissue/BSA ratio (w/v) of the homogenates were approximately 0.4:1 for the brain and liver, 0.1:1 for the spleen, 0.2:1 for the kidneys, and 0.25:1 for the small intestine. All samples were shaken in the Fast Prep at 6.0 m/s during 60 s. The stability of each analyte was investigated in all the previously mentioned matrices. For plasma (both human and mouse), the stability was determined in triplicate at two concentration levels, QC L and QC H, whereas for mouse tissue homogenates only at QC M (except the brain in one stability condition). For all matrices, the following stability conditions were assessed: short term at room temperature (RT), long term at − 20 °C, and after 3 freeze-thaw (F/T) cycles at − 20 °C/RT. Furthermore, for tissue homogenates, the short-term stability in ice-water, long-term stability at − 70 °C, and F/T stability at − 70 °C/ice-water were also evaluated. Additionally, the stability in the final extract was tested. For this, the QC L and QC H final extracts from the plasma, brain, and spleen and the QC M final extract from the liver, kidney and small intestine were stored at 4–8 °C up to 3 days. Lastly, the stability of the stock solutions at − 20 °C was investigated.

[3] = Stability in human plasma and its final extract (LC-MS/MS); assay type: in vitro ADME
Procedure: as §1, §2

[4] = Stability in mouse spleen homogenate and its final extract; assay type: in vitro ADME; conditions: final extract (listed under spleen homogenate), 4–8 °C, 3 d
Procedure: as §3

[5] = final extract (listed under mouse plasma), 4–8 °C, 4 d, nominal 5 ng/mL
[6] = final extract (listed under mouse plasma), 4–8 °C, 4 d, nominal 150 ng/mL
[7] = mouse plasma, 3 F/T (− 20 °C/RT), nominal 5 ng/mL
[8] = mouse plasma, 3 F/T (− 20 °C/RT), nominal 150 ng/mL
[9] = mouse plasma, RT, 3 d, nominal 150 ng/mL
[10] = mouse plasma, − 20 °C, 3 m, nominal 5 ng/mL
[11] = mouse plasma, − 20 °C, 3 m, nominal 150 ng/mL
[12] = liver homogenate, 3 F/T (RT, − 20 °C)
[13] = liver homogenate, 3 F/T (− 70 °C, ice/water bath)
[14] = liver homogenate, LT − 20 °C, 1 m
[15] = liver homogenate, LT − 70 °C, 1 m
[16] = liver homogenate, ice/water bath, 3 h
[17] = final extract (listed under human plasma), 4–8 °C, 4 d, nominal 5 ng/mL
[18] = final extract (listed under human plasma), 4–8 °C, 4 d, nominal 150 ng/mL
[19] = human plasma, RT, 3 d, nominal 150 ng/mL

CCN1CCN(Cc2ccc(Nc3ncc(F)c(-c4cc(F)c5nc(C)n(C(C)C)c5c4)n3)nc2)CC1 [Abemaciclib]
Accuracy (% Bias) [1, 5]: 8.1% | Mean concentration [1, 5]: […] | Accuracy (% Bias) [1, 6]: 5.1% | Mean concentration [1, 6]: […] | Accuracy (% Bias) [1, 7]: 4.3% | Mean concentration [1, 7]: […] | Accuracy (% Bias) [1, 8]: 7.6% | Mean concentration [1, 8]: […] | Mean concentration ([1]; mouse plasma, RT, 3 d, nominal 5 ng/mL): […] | Accuracy (% Bias) [1, 9]: 6.2% | Mean concentration [1, 9]: […] | Accuracy (% Bias) [1, 10]: 1.0% | Mean concentration [1, 10]: […] | Accuracy (% Bias) [1, 11]: 21.8% | Mean concentration [1, 11]: […] | IC50 (CDK4): […] | Mean concentration ([2]; final extract (listed under liver homogenate), 4–8 °C, 2 d): […] | Accuracy (% Bias) [2, 12]: 5.0% | Mean concentration [2, 12]: 52.5 ng/mL | Accuracy (% Bias) [2, 13]: 0.1% | Mean concentration [2, 13]: 50.0 ng/mL | Accuracy (% Bias) [2, 14]: 1.4% | Mean concentration [2, 14]: 50.7 ng/mL | Accuracy (% Bias) [2, 15]: 1.2% | Mean concentration [2, 15]: […] | Mean concentration ([2]; liver homogenate, RT, 1 d): 47.9 ng/mL | Accuracy (% Bias) [2, 16]: 3.8% | Mean concentration [2, 16]: 51.9 ng/mL | Accuracy (% Bias) [3, 17]: 4.5% | Mean concentration [3, 17]: […] | Accuracy (% Bias) [3, 18]: 7.1% | Mean concentration [3, 18]: […] | Mean concentration ([3]; human plasma, 3 F/T (− 20 °C/RT), nominal 5 ng/mL): […] | Mean concentration ([3]; human plasma, 3 F/T (− 20 °C/RT), nominal 150 ng/mL): […] | Mean concentration ([3]; human plasma, RT, 3 d, nominal 5 ng/mL): […] | Accuracy (% Bias) [3, 19]: 6.2% | Mean concentration [3, 19]: […] | Mean concentration ([3]; human plasma, − 20 °C, 12 m, nominal 5 ng/mL): […] | Mean concentration ([3]; human plasma, − 20 °C, 12 m, nominal 150 ng/mL): […] | Accuracy (% Bias) ([4]; nominal 5 ng/mL): 10.7% | Mean concentration ([4]; nominal 5 ng/mL): […] | Accuracy (% Bias) ([4]; nominal 150 ng/mL): 4.2%
